Test results: ChEMBL document CHEMBL3507680, “University of Dundee, Gates Library screen for HepG2 cell viability”

Assay: Human HepG2 cell viability assay in 384 well format
Format: toxicity, cell-based
Set-up: dose 125 nL, time 70.5 hour; cytotoxicity at 70.5 h: concentration not given beside the values
Conditions: HepG2 cells, read-out: Inhibition

SMILES	cytotoxicity at 70.5 h [%]
Cn1cc(CN2CCc3c(c(COCC#N)nn3C)C2)cn1	-13.6
Cc1cccc(C(=O)N2CC[C@@H]3[C@H]2CCC(=O)N3c2ccccc2)n1	17.8
Cc1ccc(C(=O)N2C[C@@H]3COC[C@]3(COc3cccnc3)C2)cn1	12.6
CN(CC1(CO)CCCC1)[C@@H]1c2ccccc2C2(CCNCC2)[C@H]1O	-3.86
Cc1ccccc1CNC(=O)C1CCN(Cc2nccn2C)CC1	-0.376
CN1C(=O)C2(CCN(C(=O)c3ccccc3)CC2)c2cc(F)ccc21	-7.93
CN1CCCN(C(=O)c2nc3c(n2C)CCN(c2ncccn2)C3)CC1	22.6
CCC1CN(C(=O)c2csc(-c3cnn(C)c3)n2)CCO1 (stereo not given)	-10.2
Cc1nc(N(C)C)nc(N2CCC3(CC2)CNC(=O)O3)c1C	-5.15
COc1ccc(-c2cn[nH]c2)cc1CNC1CCCC1	-19.5
O=S(=O)(NCCCn1cccn1)c1ccc2c(c1)CCC2	-5.82
CCOC(=O)c1cccc(N2CCCC3(CCC(=O)N(C4CC4)C3)C2)n1 (stereo not given)	-2.93
CN(Cc1ccccc1C(F)(F)F)C(C(N)=O)c1ccccc1 (stereo not given)	10.2
CNC(=O)NCC1CCC2(CCN(C(=O)c3ccccc3)CC2)CO1 (stereo not given)	-2.1
COCCN1CC[C@H]2OCC[C@@H](C(=O)N3CCCO3)[C@H]2C1	47
O=C(N[C@@H]1CCNC[C@H]1O)c1ccc(O)c(Cl)c1	-8.26
OC1(CN2CCCC(Cn3cncn3)C2)CCCCC1 (stereo not given)	6.45
CCN(CCO)C[C@@H]1CN(C(=O)c2sc3ccccc3c2C)C[C@@H]1CO	8.11
CNC(=O)CCNC(=O)c1cccc(Cn2nc(C)cc2C)c1	-3.48
CS(=O)(=O)N1CCc2c(cccc2NC(=O)CC(F)(F)F)C1	-1.76
COCC(=O)N[C@H]1C[C@@H](C(=O)NCCc2cccc(Cl)c2)N(C)C1	-13.3
COc1ccc(C(=O)C2CCCN(c3cnccn3)C2)c(C)c1 (stereo not given)	-8.1
CN(CC1(O)CCCCC1)C1CCCN(Cc2noc(C3CC3)n2)C1 (stereo not given)	16.9
Cc1nc(CN2CCCC(NCc3cnc(C(C)(C)C)s3)C2)no1 (stereo not given)	2.91
Cc1ncsc1CN1CCOC(C)(C(=O)N2CCOCC2)C1 (stereo not given)	-2.94
N#Cc1cccc(CN2C[C@@H](F)[C@@H](OCc3nc4cnccc4[nH]3)C2)c1	11.4
CCN1CCNC(=O)C12CCN(C(=O)Cc1ccsc1)CC2	2.23

SMILES	cytotoxicity at 70.5 h [%]
COCCOCCNC(=O)C(C)Oc1ccccc1C(F)(F)F (stereo not given)	-5.94
Fc1cccc(N2CCc3ncnc(N4CCOCC4)c3CC2)c1	-6.22
O=C(NCC1CC1)[C@H]1C[C@@H]2CCN(Cc3nccs3)C[C@@H]2O1	-2.02
CCOCCC(=O)N1CCCC(CO)(CC2CC2)C1 (stereo not given)	-11
CCc1nc(C2CCCN2C(=O)CCc2cscn2)no1 (stereo not given)	-4.03
Cc1[nH]c2c(C)ccc(C)c2c1CC(=O)NCCCNc1cccnc1	-9.64
CC(C)c1nn(C)c(N(C)C)c1CNCc1cccc2c1OCO2	-3.25
Clc1cccc(N2CCC(NCc3ncc[nH]3)C2)c1 (stereo not given)	0.765
CCSCCC(C)N(C)C(=O)c1ccc2nncn2c1 (stereo not given)	-4.21
Cc1noc(C)c1CN1CC[C@@H]2O[C@H](COCC3CC3)CC[C@@H]21	-4.64
O=C(O)c1ccc(F)c(S(=O)(=O)Nc2c(F)cccc2-n2cccn2)c1	-5.11
Cc1nc(-c2ccc(C(=O)O)cc2)cc(C2CCN(C(C)C)CC2)n1	12.2
Cc1cc(-c2cnc(NC3CCCC3)nc2-c2ccco2)on1	-6.66
CC(C)C(=O)NC1CCCN(C(=O)c2ccc(O)c(Cl)c2)C1 (stereo not given)	-9.92
O=C(NCCn1ccnc1)N1CCN(Cc2cccs2)CC1	-17.2
COCCOc1ccnc(-c2noc([C@@H]3CCCN3CC3CC3)n2)c1	-9.26
Fc1cccc(-c2cccc(N3CCC(NC4CCCOC4)CC3)c2)c1 (stereo not given)	33.8
Cc1c(C(=O)N2CCC(N3CCCCC3)CC2)n(C)c2ccc(Cl)cc12	-0.949
CCc1nccc(CN2CCC(CNC(=O)Nc3ccccc3)C2)n1 (stereo not given)	18.8
Cc1cnn(C2CN(CC(=O)NCCc3cccs3)C2)c1	-12.3
CC(=O)N1N=C(COc2ccc3c(c2)OCO3)OC1c1cccc(Cl)c1 (stereo not given)	-2.04
CC(CN1CCOCC1)NC(=O)NCCc1ccc(Cl)s1 (stereo not given)	-6.3
CCN1CCN(C(=O)c2cnc3c(cnn3C3CCCC3)c2)CC1	-6.55
COCCOCCCNC(=O)c1cc(Cl)cc2cccnc12	-18.1
CC(C)Nc1ncc(-c2ccncc2)c([C@@H]2CCCO2)n1	-8.69
O=S(=O)(Cc1ccccc1F)Cc1nnnn1C1CC1	-14.6
CC(C)(C)c1n[nH]c(C2CN(CC3CCC3)CCO2)n1 (stereo not given)	-0.868

SMILES	cytotoxicity at 70.5 h [%]
COCCN1CCC2(CC1)CC(NC(=O)COC)c1ccccc1O2 (stereo not given)	-7.59
O=C(c1ccc(Br)cc1F)N1CCc2ccncc21	3.99
COc1ccc(N2CCN(C(=O)c3cc(=O)c(OC)c[nH]3)CC2)cc1	-6.09
COc1ccc(Oc2ncccc2NC(=O)N2CCOCC2C)cc1 (stereo not given)	-1.92
CCc1cnc(CN2CCOC(c3nc(C)n[nH]3)C2)o1 (stereo not given)	-7.69
Cc1cn[nH]c1C1CCCCN1C(=O)CCc1c(C)n[nH]c1C (stereo not given)	-2.55
Cn1cnc(CNC(=O)c2ccccc2-n2cc(CN)cn2)c1	-5.11
C=C(C)COc1cccc(C(=O)N(C)C(C)c2c(C)n[nH]c2C)c1 (stereo not given)	-4.42
c1cc(CO[C@@H]2CC[C@H]3[C@H]2OCCN3Cc2ccoc2)ccn1	-14.9
Cc1ccc(C(=O)O)c(N2CC(C)(C)[C@@](C)(O)C2)n1	-10.6
Cc1noc(C)c1C(=O)N[C@@H]1CC[C@@H](Oc2ccccc2)[C@@H]1O	-2.95
Cc1nnc(NC(=O)CN2CCCC(Cn3cncn3)C2)s1 (stereo not given)	-1.69
Cc1nnc(CN2CCN(CCOc3ccccc3C#N)CC2)n1C	7.15
Cc1cc2c(N3CCC(N(C)CCc4cnn(C)c4)CC3)ncnc2s1	2.46
O=S(=O)(C1CC1)N1CC[C@@H]2[C@@H]1CCN2Cc1cccs1	-6.17
OCCN1CCN(Cc2coc(-c3cccc(Cl)c3)n2)CC1	24.5
COc1cc(C)c(C)cc1S(=O)(=O)NCC(O)c1cccn1C (stereo not given)	-5.03
CCC1c2ccsc2CCN1C(=O)NCCNc1ncccn1 (stereo not given)	0.287
COCc1noc(Cn2c(C3CC3)nc3ccccc32)n1	21.1
CCN(C)S(=O)(=O)N1CCCC(c2cccc(C(=O)O)c2)C1 (stereo not given)	-8.54
O=C1NCC2(CCCN(Cc3ccccc3F)C2)Oc2ccccc21 (stereo not given)	-14.5
CCc1nnsc1C(=O)N1CCOC(c2nc(C)n[nH]2)C1 (stereo not given)	1.73
CC(C)OCCCNC(=O)CS(=O)(=O)Cc1ccc(Cl)cc1	13
C[C@H](NC(=O)C1CC1)c1nc2cc(-c3ccc(F)cc3)ncn2n1	2.87
O=C(c1ccc(Cl)cc1)N1CCn2c(nn(-c3ccc(Cl)cc3)c2=O)C1	-1.63
COc1ccccc1-c1cc(NC(=O)CCC2CCCO2)[nH]n1 (stereo not given)	36.9
